This is an account of results in patent US20230131899A1, “INHIBITORS OF MICROBIALLY INDUCED AMYLOID” (Axial Therapeutics, Inc., priority 2020, published 2023).

This assay concerns CsgA gene expression (csgBAC promoter-GFP reporter) in E. coli UTI89. The assay is described as follows: In vitro live cell fluorescent reporter assay of CsgA transcription (Reporter Assay). The assay is classed as cell-based. The settings on record: Escherichia coli. The essentials:
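Chromosomal single-copy csgBAC promoter–GFP reporter in E. coli UTI89, started at OD600 0.003 in YESCA broth with compound (0.14–100 μM, 1% DMSO), 20 h at 27 °C. GFP (ex 485/em 525 nm) background-subtracted and normalized to vehicle; IC50 and X[50] from curve fits. OD600 tracked growth effects.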
In general terms: In a reporter assay the amount or activity of a reporter protein is the signal.

Where [1] appears, read: read-out: Reporter Assay Abs IC50 (μM), median Abs IC50 in the CsgA reporter assay, N/A = maximum expression reduction is <50% of control.
The mark [2] stands for this setting: read-out: Reporter Assay Abs IC50, activity range, class symbol.
Setting [3] is: read-out: Reporter Assay Abs IC50 (activity range), median Abs IC50 in the CsgA reporter assay, class symbol.

Each structure is given as a SMILES string. Like-named read-outs stand apart in the source and are kept apart here.

The term IC50 denotes the point on the concentration scale where inhibition reaches its midpoint. Take `CCCN1CC(C(=O)O)n2c(c(-c3cccc(C(F)(F)F)c3)c(Cc3cccc4ccccc34)c(C(N)=O)c2=O)S1(=O)=O` (stereo not drawn) [Compound 172, 7-carbamoyl-8-(naphthalen-1-ylmethyl)-6-oxo-2-propyl-9-(3-(trifluoromethyl)phenyl)-3,4-dihydro-2H,6H-pyrido[1,2-e][1,2,5]thiadiazine-4-carboxylic acid 1,1-dioxide]: the IC50 runs as follows: under setting [1], 4.2 µM; under setting [2], 1.3 to 4.5 µM.

`O=C(O)C1CN(Cc2ccncc2)c2c(-c3cccc(C(F)(F)F)c3)c(Cc3cccc4ccccc34)c(Cl)c(=O)n21` (stereo not drawn) [Compound 174, 6-chloro-7-(naphthalen-1-ylmethyl)-5-oxo-1-(pyridin-4-ylmethyl)-8-(3-(trifluoromethyl)phenyl)-1,2,3,5-tetrahydroimidazo[1,2-a]pyridine-3-carboxylic acid]: the concentration for half-maximal inhibition (IC50) under setting [1] turned out to be 4.4 µM and the IC50 under setting [2] lay in the range of 1.3 to 4.5 µM.

In the case of `O=C(O)C1COc2c(-c3cccc(C(F)(F)F)c3)c(Cc3cccc4ccccc34)cc(=O)n21` (stereo not drawn) [Compound 064, 7-(naphthalen-1-ylmethyl)-5-oxo-8-(3-(trifluoromethyl)phenyl)-2,3-dihydro-5H-oxazolo[3,2-a]pyridine-3-carboxylic acid], the IC50 under setting [3] is over 10 µM and the 50% inhibitory concentration (IC50) under setting [1] is 45.3 µM.

As for `O=C(O)C1CN(Cc2ccccc2)c2c(-c3cccc(C(F)(F)F)c3)c(Cc3cccc4ccccc34)c(F)c(=O)n21` (stereo not drawn) [Compound 194, 1-benzyl-6-fluoro-7-(naphthalen-1-ylmethyl)-5-oxo-8-(3-(trifluoromethyl)phenyl)-1,2,3,5-tetrahydroimidazo[1,2-a]pyridine-3-carboxylic acid], the IC50 is, setting by setting: under setting [1], 1.4 µM; under setting [2], 1.3 to 4.5 µM.

Take `O=C(O)C1CN(Cc2cccc(O)c2)c2c(-c3cccc(C(F)(F)F)c3)c(Cc3cccc4ccccc34)c(Cl)c(=O)n21` (stereo not drawn) [Compound 196, 6-chloro-1-(3-hydroxybenzyl)-7-(naphthalen-1-ylmethyl)-5-oxo-8-(3-(trifluoromethyl)phenyl)-1,2,3,5-tetrahydroimidazo[1,2-a]pyridine-3-carboxylic acid]: the 50% inhibitory concentration (IC50) by setting is: under setting [1], 2.8 µM; under setting [2], 1.3 to 4.5 µM.

As for `O=C(O)C1CN(CCCCCCCN2CC(C(=O)O)n3c2c(-c2cccc(C(F)(F)F)c2)c(Cc2cccc4ccccc24)c(Cl)c3=O)c2c(-c3cccc(C(F)(F)F)c3)c(Cc3cccc4ccccc34)c(Cl)c(=O)n21` (stereo not drawn) [Compound 188, 1,1′-(heptane-1,7-diyl)bis(6-chloro-7-(naphthalen-1-ylmethyl)-5-oxo-8-(3-(trifluoromethyl)phenyl)-1,2,3,5-tetrahydroimidazo[1,2-a]pyridine-3-carboxylic acid)], the half-inhibitory concentration (IC50) is, setting by setting: under setting [1], 0.8 µM; under setting [2], under 1.3 µM.

For `CC1(C(=O)O)CNS(=O)(=O)c2c(-c3cccc(C(F)(F)F)c3)c(Cc3cccc4ccccc34)cc(=O)n21` (stereo not drawn) [Compound 042, 4-methyl-8-(naphthalen-1-ylmethyl)-6-oxo-9-(3-(trifluoromethyl)phenyl)-3,4-dihydro-2H,6H-pyrido[1,2-e][1,2,5]thiadiazine-4-carboxylic acid 1,1-dioxide], the half-maximal inhibitory concentration (IC50) under setting [3] is 1.3 to 4.5 µM and the IC50 under setting [1] was 3.3 µM.

On to `Cn1c(=O)c2c(nc(CCCCCCCN3CC(C(=O)O)n4c(c(-c5cccc(C(F)(F)F)c5)c(Cc5cccc6ccccc56)cc4=O)S3(=O)=O)n2C)n(C)c1=O` (stereo not drawn) [Compound 047, 8-(naphthalen-1-ylmethyl)-6-oxo-9-(3-(trifluoromethyl)phenyl)-2-(7-(1,3,7-trimethyl-2,6-dioxo-2,3,6,7-tetrahydro-1H-purin-8-yl)heptyl)-3,4-dihydro-2H,6H-pyrido[1,2-e][1,2,5]thiadiazine-4-carboxylic acid 1,1-dioxide], for which the IC50 under setting [3] is under 1.3 µM and the half-inhibitory concentration (IC50) under setting [1] was 0.9 µM.

On to `O=C(O)C1CN(CCc2ccccc2)c2c(-c3cccc(C(F)(F)F)c3)c(Cc3cccc4ccccc34)c(Cl)c(=O)n21` (stereo not drawn) [Compound 178, 6-chloro-7-(naphthalen-1-ylmethyl)-5-oxo-1-phenethyl-8-(3-(trifluoromethyl)phenyl)-1,2,3,5-tetrahydroimidazo[1,2-a]pyridine-3-carboxylic acid], for which the half-inhibitory concentration (IC50) was 0.8 µM under setting [1] and under 1.3 µM under setting [2].

As to `CN1CC(C(=O)O)n2c(c(-c3cccc(C(F)(F)F)c3)c(Cc3cccc4ccccc34)c(C(=O)N3CCOCC3)c2=O)S1(=O)=O` (stereo not drawn) [Compound 160, 2-methyl-7-(morpholine-4-carbonyl)-8-(naphthalen-1-ylmethyl)-6-oxo-9-(3-(trifluoromethyl)phenyl)-3,4-dihydro-2H,6H-pyrido[1,2-e][1,2,5] thiadiazine-4-carboxylic acid 1,1-dioxide], the IC50 reads like this: under setting [1], 65.8 µM; under setting [2], over 10 µM.

Take `CCCN1CC(C(=O)O)n2c(c(-c3cccc(C(F)(F)F)c3)c(Cc3cccc4ccccc34)c(NC(=O)CC)c2=O)S1(=O)=O` (stereo not drawn) [Compound 153, 8-(naphthalen-1-ylmethyl)-6-oxo-7-propionamido-2-propyl-9-(3-(trifluoromethyl)phenyl)-3,4-dihydro-2H,6H-pyrido[1,2-e][1,2,5]thiadiazine-4-carboxylic acid 1,1-dioxide]: the half-maximal inhibitory concentration (IC50) under setting [1] came out at 16.6 µM and the IC50 under setting [2] is over 10 µM.

Turning to `CCCN1CC(C(=O)O)n2c(c(-c3cccc(C(F)(F)F)c3)c(C(F)(F)c3cccc4ccccc34)cc2=O)S1(=O)=O` (stereo not drawn) [Compound 138, 8-(difluoro(naphthalen-1-yl)methyl)-6-oxo-2-propyl-9-(3-(trifluoromethyl)phenyl)-3,4-dihydro-2H,6H-pyrido[1,2-e][1,2,5]thiadiazine-4-carboxylic acid 1,1-dioxide], the IC50 is, setting by setting: under setting [1], 2.5 µM; under setting [2], 1.3 to 4.5 µM.

For the compound `O=C(O)C1CN(Cc2ccccc2)c2c(-c3cccc(C(F)(F)F)c3)c(Cc3cccc4ccccc34)cc(=O)n21` (stereo not drawn) [Compound 187, 1-benzyl-7-(naphthalen-1-ylmethyl)-5-oxo-8-(3-(trifluoromethyl)phenyl)-1,2,3,5-tetrahydroimidazo[1,2-a]pyridine-3-carboxylic acid], the concentration for half-maximal inhibition (IC50) reads like this: under setting [1], 19 µM; under setting [2], over 10 µM.

For `O=C(O)C1CN(CCCCCCN2CC(C(=O)O)n3c2c(-c2cccc(C(F)(F)F)c2)c(Cc2cccc4ccccc24)c(Cl)c3=O)c2c(-c3cccc(C(F)(F)F)c3)c(Cc3cccc4ccccc34)c(Cl)c(=O)n21` (stereo not drawn) [Compound 193, 1,1′-(hexane-1,6-diyl)bis(6-chloro-7-(naphthalen-1-ylmethyl)-5-oxo-8-(3-(trifluoromethyl)phenyl)-1,2,3,5-tetrahydroimidazo[1,2-a]pyridine-3-carboxylic acid)], the IC50 under setting [1] stood at 0.6 µM and the half-maximal inhibitory concentration (IC50) under setting [2] was under 1.3 µM.

Take `Cn1c(=O)c2c(nc(CCCCCCN3CC(C(=O)O)n4c(c(-c5cccc(C(F)(F)F)c5)c(Cc5cccc6ccccc56)cc4=O)S3(=O)=O)n2C)n(C)c1=O` (stereo not drawn) [Compound 046, 8-(naphthalen-1-ylmethyl)-6-oxo-9-(3-(trifluoromethyl)phenyl)-2-(6-(1,3,7-trimethyl-2,6-dioxo-2,3,6,7-tetrahydro-1H-purin-8-yl)hexyl)-3,4-dihydro-2H,6H-pyrido[1,2-e][1,2,5]thiadiazine-4-carboxylic acid 1,1-dioxide]: the concentration for half-maximal inhibition (IC50) was 1.3 to 4.5 µM under setting [3] and 1.6 µM under setting [1].

Take `O=C(O)[C@H]1CN(Cc2ccccc2)c2c(-c3cccc(C(F)(F)F)c3)c(Cc3cccc4ccccc34)c(Cl)c(=O)n21` (single isomer, unassigned) [Compound 004b]: the concentration for half-maximal inhibition (IC50) runs as follows: under setting [1], 0.5 µM; under setting [2], under 1.3 µM.

As for `CC(C)N1CC(C(=O)O)n2c(c(-c3cccc(C(F)(F)F)c3)c(Cc3cccc4ccccc34)c(C(N)=O)c2=O)S1(=O)=O` (stereo not drawn) [Compound 175, 7-carbamoyl-2-isopropyl-8-(naphthalen-1-ylmethyl)-6-oxo-9-(3-(trifluoromethyl)phenyl)-3,4-dihydro-2H,6H-pyrido[1,2-e][1,2,5]thiadiazine-4-carboxylic acid 1,1-dioxide], the half-maximal inhibitory concentration (IC50) is 1.4 µM under setting [1] and 1.3 to 4.5 µM under setting [2].

`Cn1c(=O)c2c(ncn2CCCCN2CC(C(=O)O)n3c(c(-c4cccc(C(F)(F)F)c4)c(Cc4cccc5ccccc45)cc3=O)S2(=O)=O)n(C)c1=O` (stereo not drawn) [Compound 033, 2-(4-(1,3-dimethyl-2,6-dioxo-1,2,3,6-tetrahydro-7H-purin-7-yl)butyl)-8-(naphthalen-1-ylmethyl)-6-oxo-9-(3-(trifluoromethyl)phenyl)-3,4-dihydro-2H,6H-pyrido[1,2-e][1,2,5]thiadiazine-4-carboxylic acid 1,1-dioxide]: the IC50 under setting [3] was 1.3 to 4.5 µM and the 50% inhibitory concentration (IC50) under setting [1] was 3.3 µM.

As for `CCCN1CC(C(=O)O)n2c(c(-c3cccc(C(F)(F)F)c3)c(Cc3cccc4ccccc34)c(Cl)c2=O)S1(=O)=O` (stereo not drawn) [Compound 142, 7-chloro-8-(naphthalen-1-ylmethyl)-6-oxo-2-propyl-9-(3-(trifluoromethyl)phenyl)-3,4-dihydro-2H,6H-pyrido[1,2-e][1,2,5]thiadiazine-4-carboxylic acid 1,1-dioxide], the half-maximal inhibitory concentration (IC50) was 2.3 µM under setting [1] and 1.3 to 4.5 µM under setting [2].

As to `O=C(O)C1CSc2c(-c3cccc(C(F)(F)F)c3)c(Cc3cccc4ccccc34)cc(=S)n21` (stereo not drawn) [Compound 054, 7-(naphthalen-1-ylmethyl)-5-thioxo-8-(3-(trifluoromethyl)phenyl)-2,3-dihydro-5H-thiazolo[3,2-a]pyridine-3-carboxylic acid], the half-maximal inhibitory concentration (IC50) reads like this: under setting [3], 4.6 to 10 µM; under setting [1], 6.3 µM.

With `CCCN1CC(C(=O)O)n2c(c(-c3cccc(C(F)(F)F)c3)c(Cc3cccc4ccccc34)c(OCC)c2=O)S1(=O)=O` (stereo not drawn) [Compound 143, 7-ethoxy-8-(naphthalen-1-ylmethyl)-6-oxo-2-propyl-9-(3-(trifluoromethyl)phenyl)-3,4-dihydro-2H,6H-pyrido[1,2-e][1,2,5]thiadiazine-4-carboxylic acid 1,1-dioxide], the IC50 under setting [1] is 5.2 µM and the half-inhibitory concentration (IC50) under setting [2] lay within 4.6 to 10 µM.
